For 32 compounds, IC50 results are on record in patent publication US20130303509A1, “NAMPT INHIBITORS” (AbbVie Inc., priority 2012, published 2013).

pIC50: −log10 of the molar value.

This test deals with PC3 cells. Kind of test: NAMPT Cell Proliferation Assay. In kind it is cell-based. The settings on record: Homo sapiens, PC-3, 120 h, 5 days incubation, cell viability by Cell Titer Glo. The gist of the method:
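Five-day CellTiter-Glo viability readout in PC3 cells grown in RPMI/10% heat-inactivated FBS. Compounds added after overnight attachment as a 10-fold dilution series, […]. Percent inhibition fitted to sigmoidal dose-response to derive IC50.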
On to `CC(C)(O)Cn1cc(-c2ccc(NC(=O)[C@H]3CCN(c4cccnn4)C3)cc2)cn1` [Example 757, (3S)-N-{4-[1-(2-hydroxy-2-methylpropyl)-1H-pyrazol-4-yl]phenyl}-1-(pyridazin-3-yl)pyrrolidine-3-carboxamide], for which the pIC50 is 7.17.

Turning to `O=C(N[C@H]1CCN(c2cccnn2)C1)c1ccc(C2CCN(C(=O)C3CCOCC3)CC2)s1` [Example 758, N-[(3S)-1-(pyridazin-3-yl)pyrrolidin-3-yl]-5-[1-(tetrahydro-2H-pyran-4-ylcarbonyl)piperidin-4-yl]thiophene-2-carboxamide], the pIC50 was 6.07.

Compound `CC(C)(C)Cn1cc(-c2ccc(NC(=O)[C@H]3CCN(c4cccnn4)C3)cc2)cn1` [Example 759, (3S)-N-{4-[1-(2,2-dimethylpropyl)-1H-pyrazol-4-yl]phenyl}-1-(pyridazin-3-yl)pyrrolidine-3-carboxamide] had a pIC50 of 8.21.

Consider `CC(C)C(=O)N1CCC(c2ccc(C(=O)N[C@H]3CCN(c4cccnn4)C3)s2)CC1` [Example 760, 5-[1-(2-methylpropanoyl)piperidin-4-yl]-N-[(3S)-1-(pyridazin-3-yl)pyrrolidin-3-yl]thiophene-2-carboxamide], for which the pIC50 is 6.60.

As to `O=C(N[C@H]1CCN(c2cccnn2)C1)c1ccc(C2CCN(C(=O)c3ccc(F)cc3F)CC2)s1` [Example 761, 5-[1-(2,4-difluorobenzoyl)piperidin-4-yl]-N-[(3S)-1-(pyridazin-3-yl)pyrrolidin-3-yl]thiophene-2-carboxamide], the pIC50 is 7.03.

Take `CC1CC1C(=O)N1CCC(c2ccc(C(=O)N[C@H]3CCN(c4cccnn4)C3)s2)CC1` (stereo partly drawn) [Example 762, 5-{1-[(2-methylcyclopropyl)carbonyl]piperidin-4-yl}-N-[(3S)-1-(pyridazin-3-yl)pyrrolidin-3-yl]thiophene-2-carboxamide]: the pIC50 was 6.15.

`O=C(N[C@H]1CCN(c2cccnn2)C1)c1ccc(C2CCN(C(=O)c3ccccc3F)CC2)s1` [Example 763, 5-[1-(2-fluorobenzoyl)piperidin-4-yl]-N-[(3S)-1-(pyridazin-3-yl)pyrrolidin-3-yl]thiophene-2-carboxamide]: the pIC50 is 8.08. This pIC50 is 1.93 log units higher than that of the compound before.

Compound `O=C(N[C@H]1CCN(c2cccnn2)C1)c1ccc(C2CCN(C(=O)c3ccccc3)CC2)s1` [Example 764, 5-(1-benzoylpiperidin-4-yl)-N-[(3S)-1-(pyridazin-3-yl)pyrrolidin-3-yl]thiophene-2-carboxamide] gave a pIC50 of 7.66.

As to `O=C(N[C@H]1CCN(c2cccnn2)C1)c1ccc(C2CCN(C(=O)C3CCOC3)CC2)s1` (stereo partly drawn) [Example 765, N-[(3S)-1-(pyridazin-3-yl)pyrrolidin-3-yl]-5-[1-(tetrahydrofuran-3-ylcarbonyl)piperidin-4-yl]thiophene-2-carboxamide], the pIC50 is 5.99. This pIC50 lies 1.67 log units lower than the previous one.

Regarding `O=C(N[C@H]1CCN(c2cccnn2)C1)c1ccc(C2CCN(C(=O)[C@H]3CCCO3)CC2)s1` [Example 766, N-[(3S)-1-(pyridazin-3-yl)pyrrolidin-3-yl]-5-{1-[(2R)-tetrahydrofuran-2-ylcarbonyl]piperidin-4-yl}thiophene-2-carboxamide], the pIC50 was 6.10.

For the compound `CN1CCC(CC(=O)N2CCC(c3ccc(C(=O)N[C@H]4CCN(c5cccnn5)C4)s3)CC2)CC1` [Example 767, 5-{1-[(1-methylpiperidin-4-yl)acetyl]piperidin-4-yl}-N-[(3S)-1-(pyridazin-3-yl)pyrrolidin-3-yl]thiophene-2-carboxamide], the pIC50 is 5.89. Against the preceding compound, the pIC50 is 0.21 log units lower.

Regarding `O=C(N[C@H]1CCN(c2cccnn2)C1)c1ccc(C2CCN(C(=O)c3cscn3)CC2)s1` [Example 768, N-[(3S)-1-(pyridazin-3-yl)pyrrolidin-3-yl]-5-[1-(1,3-thiazol-4-ylcarbonyl)piperidin-4-yl]thiophene-2-carboxamide], the pIC50 is 6.95. This pIC50 lies 1.06 log units higher than the previous one.

Turning to `CC(C)Cn1cc(-c2ccc(NC(=O)[C@H]3CCN(c4cccnn4)C3)cc2)cn1` [Example 769, (3S)-N-{4-[1-(2-methylpropyl)-1H-pyrazol-4-yl]phenyl}-1-(pyridazin-3-yl)pyrrolidine-3-carboxamide], the pIC50 was 7.73.

For the compound `CC(C)n1cc(-c2ccc(NC(=O)[C@H]3CCN(c4cccnn4)C3)cc2)cn1` [Example 770, (3S)-N-{4-[1-(propan-2-yl)-1H-pyrazol-4-yl]phenyl}-1-(pyridazin-3-yl)pyrrolidine-3-carboxamide], the pIC50 was 6.86. Compared with the last compound, the pIC50 is 0.87 log units lower.

Regarding `O=C(Nc1ccc(-c2cnn(CC3CC3)c2)cc1)[C@H]1CCN(c2cccnn2)C1` [Example 771, (3S)-N-{4-[1-(cyclopropylmethyl)-1H-pyrazol-4-yl]phenyl}-1-(pyridazin-3-yl)pyrrolidine-3-carboxamide], the pIC50 was 7.16.

For the compound `O=C(Nc1ccc(-c2cnn(CC3CCCCO3)c2)cc1)[C@H]1CCN(c2cccnn2)C1` (stereo partly drawn) [Example 772, (3S)-1-(pyridazin-3-yl)-N-{4-[1-(tetrahydro-2H-pyran-2-ylmethyl)-1H-pyrazol-4-yl]phenyl}pyrrolidine-3-carboxamide], the pIC50 is 7.20.

In the case of `CC(C)(C)n1cc(-c2ccc(NC(=O)[C@H]3CCN(c4cccnn4)C3)cc2)cn1` [Example 773, (3S)-N-[4-(1-tert-butyl-1H-pyrazol-4-yl)phenyl]-1-(pyridazin-3-yl)pyrrolidine-3-carboxamide], the pIC50 is 7.07. This pIC50 and that of the compound before are within 0.2 log units of each other.

`O=C(Nc1ccc(O[C@@H]2CCN(C(=O)c3ccccc3)C2)cc1)[C@H]1CCN(c2cccnn2)C1` [Example 774, (3S)—N-(4-{[(3R)-1-benzoylpyrrolidin-3-yl]oxy}phenyl)-1-(pyridazin-3-yl)pyrrolidine-3-carboxamide] showed a pIC50 of 8.60.

In turn, `O=C(Nc1ccc(O[C@@H]2CCN(C(=O)c3ccccc3F)C2)cc1)[C@H]1CCN(c2cccnn2)C1` [Example 775, (3S)-N-(4-{[(3R)-1-(2-fluorobenzoyl)pyrrolidin-3-yl]oxy}phenyl)-1-(pyridazin-3-yl)pyrrolidine-3-carboxamide] showed a pIC50 of 8.67. The pIC50 values of the last two compounds are within 0.2 log units of each other.

Consider `O=C(Nc1ccc(O[C@@H]2CCN(C(=O)c3cccc(F)c3)C2)cc1)[C@H]1CCN(c2cccnn2)C1` [Example 776, (3S)-N-(4-{[(3R)-1-(3-fluorobenzoyl)pyrrolidin-3-yl]oxy}phenyl)-1-(pyridazin-3-yl)pyrrolidine-3-carboxamide], for which the pIC50 is 8.12. Against the preceding compound, the pIC50 is 0.55 log units lower.

Consider `O=C(Nc1ccc(O[C@@H]2CCN(C(=O)c3ccc(F)cc3)C2)cc1)[C@H]1CCN(c2cccnn2)C1` [Example 777, (3S)-N-(4-{[(3R)-1-(4-fluorobenzoyl)pyrrolidin-3-yl]oxy}phenyl)-1-(pyridazin-3-yl)pyrrolidine-3-carboxamide], for which the pIC50 is 7.72.

`O=C(Nc1ccc(O[C@@H]2CCN(C(=O)c3cc(F)cc(F)c3)C2)cc1)[C@H]1CCN(c2cccnn2)C1` [Example 778, (3S)-N-(4-{[(3R)-1-(3,5-difluorobenzoyl)pyrrolidin-3-yl]oxy}phenyl)-1-(pyridazin-3-yl)pyrrolidine-3-carboxamide] gave a pIC50 of 7.71.

`Cc1ccccc1C(=O)N1CC[C@@H](Oc2ccc(NC(=O)[C@H]3CCN(c4cccnn4)C3)cc2)C1` [Example 779, (3S)-N-(4-{[(3R)-1-(2-methylbenzoyl)pyrrolidin-3-yl]oxy}phenyl)-1-(pyridazin-3-yl)pyrrolidine-3-carboxamide] had a pIC50 of 8.83.

`CC(C)(C)C(=O)N1CC[C@@H](Oc2ccc(NC(=O)[C@H]3CCN(c4cccnn4)C3)cc2)C1` [Example 780, (3S)-N-(4-{[(3R)-1-(2,2-dimethylpropanoyl)pyrrolidin-3-yl]oxy}phenyl)-1-(pyridazin-3-yl)pyrrolidine-3-carboxamide] gave a pIC50 of 8.39.

For the compound `O=C(Nc1ccc(O[C@@H]2CCN(C(=O)C3CCC(F)(F)CC3)C2)cc1)[C@H]1CCN(c2cccnn2)C1` [Example 781, (3S)-N-[4-({(3R)-1-[(4,4-difluorocyclohexyl)carbonyl]pyrrolidin-3-yl}oxy)phenyl]-1-(pyridazin-3-yl)pyrrolidine-3-carboxamide], the pIC50 was 8.00.

The compound `O=C(Nc1ccc(O[C@@H]2CCN(C(=O)CCC(F)(F)F)C2)cc1)[C@H]1CCN(c2cccnn2)C1` [Example 782, (3S)-1-(pyridazin-3-yl)-N-(4-{[(3R)-1-(4,4,4-trifluorobutanoyl)pyrrolidin-3-yl]oxy}phenyl)pyrrolidine-3-carboxamide] had a pIC50 of 7.17.

For the compound `O=C(Nc1ccc(O[C@@H]2CCN(C(=O)c3ccc(F)cc3F)C2)cc1)[C@H]1CCN(c2cccnn2)C1` [Example 783, (3S)-N-(4-{[(3R)-1-(2,4-difluorobenzoyl)pyrrolidin-3-yl]oxy}phenyl)-1-(pyridazin-3-yl)pyrrolidine-3-carboxamide], the pIC50 is 8.19.

`CCCc1nc(-c2ccc(NC(=O)C3CN(c4cccnn4)C3)cc2)no1` [Example 784, N-[4-(5-propyl-1,2,4-oxadiazol-3-yl)phenyl]-1-(pyridazin-3-yl)azetidine-3-carboxamide] had a pIC50 of 7.80.

For the compound `O=C(Nc1ccc(C2CN(C(=O)c3ccccc3F)C2)cc1)[C@H]1CCN(c2cccnn2)C1` [Example 785, (3S)—N-{4-[1-(2-fluorobenzoyl)azetidin-3-yl]phenyl}-1-(pyridazin-3-yl)pyrrolidine-3-carboxamide], the pIC50 was 8.93.

`O=C(Nc1ccc(C2CN(C(=O)c3cccc(F)c3)C2)cc1)[C@H]1CCN(c2cccnn2)C1` [Example 786, (3S)-N-{4-[1-(3-fluorobenzoyl)azetidin-3-yl]phenyl}-1-(pyridazin-3-yl)pyrrolidine-3-carboxamide] had a pIC50 of 7.92.

As for `O=C(Nc1ccc(C2CN(C(=O)c3ccc(F)cc3)C2)cc1)[C@H]1CCN(c2cccnn2)C1` [Example 787, (3S)-N-{4-[1-(4-fluorobenzoyl)azetidin-3-yl]phenyl}-1-(pyridazin-3-yl)pyrrolidine-3-carboxamide], the pIC50 is 7.19.

For `O=C(Nc1ccc(C2CN(C(=O)c3ccccc3)C2)cc1)[C@H]1CCN(c2cccnn2)C1` [Example 788, (3S)-N-[4-(1-benzoylazetidin-3-yl)phenyl]-1-(pyridazin-3-yl)pyrrolidine-3-carboxamide], the pIC50 is 8.12.

The term pIC50 denotes the IC50 on a negative log10 scale, so that one unit is a factor of ten.
